US6766183B2, “Long wave fluorophore sensor compounds and other fluorescent sensor compounds in polymers” (Medtronic MiniMed, Inc., priority 1995, dated 2004)

Experiments:
Water solubility = assay type: physicochemical
From the text: Exemplary long wavelength glucose-sensing molecule containing an oxazine (Nile Blue) coupled with a phenyl boronate suitable for detection of glucose, following polymer incorporation, in vivo is shown in FIGS. 2 and 3. FIG. 2 provides a comparison of fluorescent excitations of representative fluorophores including the oxazine Nile Blue. The excitation and emission profile of anthracene based compounds are well below that of Nile Blue's fluorescent profile (see, e.g., FIG. 3). […] It is feasible to substitute other oxazines of similar structure for Nile Blue.

[1] = Glucose transduction of Nile Blue boronate: fluorescence in DMSO/PBS, ex 621 nm, em 671 nm; settings: for fluorescent intensity increase at 671 nm: ex 621 nm, relative to blank, listed as 1; for fluorescent intensity increase at 671 nm / increase in fluorescent intensity at 671 nm: DMSO/PBS; for increase in fluorescent intensity at 671 nm: separate batch
Method: A typical embodiment of the invention uses Nile Blue as an illustrative oxazine-based fluorophore.
Results: After work-up, the reaction was concentrated to dryness. A sample of the blue residue (˜1 mg), dissolved in DMSO (1 ml), was aliquoted (100 □ L) and dissolved in PBS (20 mL). […] A control fluorescence experiment was performed containing Nile Blue A using the same conditions as mentioned above.
(§1) To a round bottom flask, equipped with a reflux condenser under N2, containing Nile Blue perchlorate salt (42 mg, 0.1 mmol), boronate (28 mg, 0.1 mmoles) and K2CO3 (˜1 g) was added CH3CN (25 mL). The reaction was heated at reflux for 24 hours after which the solvent evaporated and the reaction went to dryness. The sample of the reaction mixture (1 mg, 2.21 mole) was dissolved in DMSO (1 mL). An aliquot (100 μL) was dissolved in PBS (20 mL). A sample of this solution (3 mL) was placed into the fluorolog and fluorescent measurements were made (ex=621 nm, slits at 10 and 20) at various glucose concentrations (0 mg/dL, 150 mg/dL, 300 mg/dL and 450 mg/dL) with a sampling interval of 45 min.
as §1, with “(22” for “(28”, “The reaction was heated at reflux for 24 hours after which the solvent evaporated and the reaction went to dryness.” left out, “[…])” for “mole)”
as §1, with “[…])” for “mole)”

[2] = Glucose transduction in PBS, relative fluorescent intensity (FIG. 18 format)
Method: FIG. 18 is a graph showing Nile Blue boronate's transduction of glucose in PBS.
The figures provided herein further illustrate various embodiments of the invention and their properties in order to further facilitate artisans' making and using the invention. For example, using the graphic format provided in FIG. 18, experiments confirming properties of Nile Blue were performed with the following results: […]

[3] = Fluorescence excitation and emission wavelengths; assay type: physicochemical; settings: aqueous PBS; for maximum emission wavelength: irradiated at 621 nm
From the text: An exemplary oxazine-based biosensor molecule of the present invention utilizes Nile blue as the fluorophore as shown in FIG. 2. The Nile blue-based biosensor molecule has an excitation wavelength of about 625 nm and a maximum emission wavelength of about 675 nm (see, e.g. FIGS. 8). Similar oxazine-based fluorophores suitable for use in embodiments of the present invention may include one or more functional groups selected from the following: aliphatic, aromatic, haloalkane, alcohol, ether, amine, cyano, nitro group, aldehyde, ketone, ester, carboxylic acid, sulfonic acid and phosphoric acid functional groups.
As illustrated above, the oxazine-based molecules in accordance with embodiments of the invention solve the problem of obtaining optimal optical transmission of fluorescence via implanted fluorescent reporter systems of in-vivo polyhydroxylate analyte concentrations. […] Particular embodiments of the biosensor molecules of the invention have at least one maximum wavelength in their emission spectra that is greater than about 600 nm and have at least one wavelength in their emission spectra that is greater than about 650 nm. An exemplary oxazine-based biosensor molecule in accordance with embodiments of the invention utilizes Nile Blue as a fluorophore. This Nile Blue biosensor molecule generally has an excitation wavelength of about 625 nm and an emission wavelength of about 675 nm in an aqueous Phosphate Buffered Saline (PBS) solution. Particular embodiments of the invention, however, may emit in the near infrared (IR) region of the spectrum.
Results: After work-up, the reaction was concentrated to dryness. A sample of the blue residue (˜1 mg), dissolved in DMSO (1 ml), was aliquoted (100 □ L) and dissolved in PBS (20 mL). A sample PBS solution (3 mL) contained in a cuvette and irradiated at 621 nm, gave rise to the appearance of a maximum emission peak at 671 nm. Successive additions of glucose (150 mg/dL), added to the cuvette, led to an increase in […] intensity, at 671 nm, after each addition. The first addition of glucose gave rise to a 7.5% increase in fluorescence at 671 nm. After the second addition of glucose, the intensity rose 14.3% relative to the blank. Addition of the third aliquot of glucose gave an 18.8% rise in fluorescent intensity relative to the blank. […] A control fluorescence experiment was performed containing Nile Blue A using the same conditions as mentioned above.

**Q.** With `CC[N+](CC)=c1ccc2nc3c(cc(N)c4ccccc43)oc-2c1` [Nile Blue, Nile Blue A, reference compound] as the molecule, how does the solubility in water (Water solubility) read?
**A.** The solubility in water was “highly soluble in water”.

**Q.** And the “glucose transduction (control experiment)” value ([1]; DMSO/PBS solutions, same conditions as the boronate)?
**A.** The value was “incapable of transducing glucose”.

**Q.** Which relative fluorescent intensity ([2]; glucose 0 mg/dl) does the source give for Nile Blue A here?
**A.** Its relative fluorescent intensity is 1.0.

**Q.** And the relative fluorescent intensity ([2]; glucose 150 mg/dl)?
**A.** Its relative fluorescent intensity is 1.085.

**Q.** And the relative fluorescent intensity ([2]; glucose 300 mg/dl)?
**A.** The relative fluorescent intensity was 1.239.

**Q.** And the relative fluorescent intensity ([2]; glucose 450 mg/dl)?
**A.** Its relative fluorescent intensity is 1.398.

**Q.** And the relative fluorescent intensity ([2]; glucose 1000 mg/dl)?
**A.** The relative fluorescent intensity was 1.513.

**Q.** Which results are given for Nile Blue Boronate?
**A.** fluorescent intensity increase at 671 nm ([1]; glucose 150 mg/dL): 7.5%; fluorescent intensity increase at 671 nm ([1]; glucose 300 mg/dL): 14.3%; fluorescent intensity increase at 671 nm ([1]; glucose 450 mg/dL): 18.8%; glucose transduction ([1]; in water): transduces glucose exceptionally well; increase in fluorescent intensity at 671 nm ([1]; glucose 150 mg/dL (first addition)): 23.4%; increase in fluorescent intensity at 671 nm ([1]; glucose 300 mg/dL (second addition)): 37.8%; increase in fluorescent intensity at 671 nm ([1]; glucose 450 mg/dL (third addition)): 47.4%; excitation wavelength [3]: about 625 nm; maximum emission wavelength ([3]; listed as 1): 671 nm; maximum emission wavelength ([3]; listed as Nile Blue biosensor molecule): about 675 nm; maximum emission wavelength ([3]; listed as Nile blue-based biosensor molecule): about 675 nm
